Data on 3 molecules can be found in patent US20080103195A1, “COMPOUNDS FROM ANTRODIA CAMPHORATA FOR INHIBITING THE GROWTH OF CANCER TUMOR CELLS” (priority 2006, published 2008).

For test [1], the system named is MCF-7 human breast cancer cells. The experiment in a line: In vitro assay of anti-tumor activity of breast cancer (MTT assay). Type of test: cell-based. The following applies: MCF7, 48 h. The source says: (§1) According to anti-tumor agents screening model of National Cancer Institute (NCI) of the United States National Institutes of Health, the assay is processed by adding 4,7-dimethoxy-5-methy-1,3-benzodioxole into the culture medium of MCF-7 human tumor cells and MDA-MB-231 human tumor cells respectively. The assay of tumor cell viability can be evaluated by using the conventional MTT assay, and MCF-7 and MDA-MB-231 are human breast cancer tumor cell lines.
(§2) MTT assay is a conventional assay used to analyze the cell proliferation, percentage of viable cells, and cytotoxicity. MTT (3-(4,5-dimethylthiazole-2-yl)-2,5-diphenyl tetrazolium bromide) is a yellow dye, and is metabolized only in living cells by the mitochondrial succinate-tetrazolium reductase system to produce blue violet insoluble formazan products, thereby providing a measure of the number of viable cells upon generation of formazan products in viable cells.
(§3) Doses of ethyl alcohol extract of Antrodia camphorata (the control group) were respectively 30, 10, 3, 1, 0.3, 0.1, and 0.03 μg/ml for each well and 4,7-dimethoxy-5-methy-1,3-benzodioxole (the experimental group) were respectively 30, 10, 3, 1, 0.3, 0.1, and 0.03 μg/ml for each well incubated at 37° C., 5% CO2 for 48 hours. 2.5 mg/ml MTT dye is added to each well without light and incubated for 4 hours, then treated with 100 μl lysis buffer to stop the reaction.

Test [2] concerns MDA-MB-231 human breast cancer cells. The test is described as above. Format: cell-based. The following applies: MDA-MB-231, 48 h.
From the text: as §1, §2, §3

In test [3] the test system is Hep 3B human liver cancer cells. The experiment in a line: In vitro assay of anti-tumor activity of liver cancer (MTT assay). Type of test: cell-based. To be noted: Hep3B, 48 h. As to the method: (§4) According to anti-tumor agents screening model of National Cancer Institute (NCI) of the United States National Institutes of Health, the assay is processed by adding 4,7-dimethoxy-5-methy-1,3-benzodioxole into the culture medium of Hep 3B and Hep G2 human liver cancer tumor cells respectively.
(§5) Doses of ethyl alcohol extract of Antrodia camphorate (the control group) were respectively 30, 10, 3, 1, 0.3, 0.1, and 0.03 μg/ml for each well and 4,7-dimethoxy-5-methy-1,3-benzodioxole (the experimental group) were respectively 30, 10, 3, 1, 0.3, 0.1, and 0.03 μg/ml for each well incubated at 37° C., 5% CO2 for 48 hours. 2.5 mg/ml MTT dye is added to each well without light and incubated for 4 hours, then treated with 100 μl lysis buffer to stop the reaction.
On the technique in general: Tetrazolium dyes change colour on reduction, which living cells bring about.

For test [4], the system named is Hep G2 human liver cancer cells. The test is described as above. Type of test: cell-based. The following applies: HepG2, 48 h. On the procedure: as §4, §5
Test [5] relates to DU-145 human prostate cancer cells. The experiment in a line: In vitro assay of anti-tumor activity of prostate cancer (MTT assay). Format: cell-based. To be noted: DU-145, 48 h. On the procedure:
(§6) According to anti-tumor agents screening model of National Cancer Institute (NCI) of the United States National Institutes of Health, the assay is processed by adding 4,7-dimethoxy-5-methy-1,3-benzodioxole into the culture medium of LNCaP and DU-145 human prostate cancer tumor cells respectively.
(§7) Doses of ethyl alcohol extract of Antrodia camphorata (the control group) were respectively 30, 10, 3, 1, and 0.3 μg/ml for each well and 4,7-dimethoxy-5-methy-1,3-benzodioxole (the experimental group) were respectively 30, 10, 3, 1, and 0.3 μg/ml for each well incubated at 37° C., 5% CO2 for 48 hours. 2.5 mg/ml MTT dye is added to each well without light and incubated for 4 hours, then treated with 100 μl lysis buffer to stop the reaction.

Test [6] concerns LNCaP human prostate cancer cells. The test is described as above. Format: cell-based. The following applies: 48 h. As to the method: as §6, §7
For test [7] the test system is unchanged. The experiment in a line: In vitro activity assay of adjuvant treatment of prostate cancer tumor cells using Taxol (MTT assay). Format: cell-based. On the procedure: (§8) Doses of 4,7-dimethoxy-5-methy-1,3-benzodioxole were 30, 10, 3, 1, 0.3, 0.1, and 0.03 μg/ml (the experimental group) and 0 μg/ml of 4,7-dimethoxy-5-methy-1,3-benzodioxole (the control group) for each well incubated at 37° C., 5% CO2 for 48 hours. 2.5 mg/ml MTT dye is added to each well without light and incubated for 4 hours, then treated with 100 μl lysis buffer to stop the reaction.

The subject of test [8] is Hep 3B human liver cancer cells. To be noted: 0.0043 μg/ml Lovastatin alone (control group).
Experimental: (§9) First, Hep 3B human liver cancer cells and Hep G2 human liver cancer cells were respectively cultured in culture medium supplemented with fetal bovine serum for 24 hours. The proliferative cells were washed with PBS once, and treated with one-fold trypsin/EDTA solution. After centrifuged at 1,200 rpm for 5 min, the supernatant was removed and the cell pellet was transferred to new tubes and treated with 10 ml medium to suspend the cells again. Before the assay, the Hep 3B cell line was treated with 0.0043 μg/ml Lovastatin for 72 hours and the Hep G2 cell line was treated with 0.0017 μg/ml Taxol for 72 hours, and then plated in 96 well microplates. Doses of 4,7-dimethoxy-5-methy-1,3-benzodioxole were 30, 10, 3, 1, 0.3, 0.1, and 0.03 μg/ml (the experimental group) and 0 μg/ml of 4,7-dimethoxy-5-methy-1,3-benzodioxole (the control group) for each well incubated at 37° C., 5% CO2 for 48 hours. 2.5 mg/ml MTT dye is added to each well without light and incubated for 4 hours, then treated with 100 μl lysis buffer to stop the reaction. Subsequently, absorption was measured on an enzyme immunoassay analyzer at 570 nm for the measurement of viable cell number. The concentration of the drug measured at 50% of the cell death (i.e. IC50 value) was determined and calculated.
In test [9] the test system is MCF-7 human breast cancer cells. The experiment in a line: In vitro activity assay of adjuvant treatment of breast cancer tumor cells using Taxol (MTT assay). Type of test: cell-based. The following applies: MCF-7, 0.0017 μg/ml Taxol alone (control group, 0 μg/ml benzodioxole). On the procedure: as §8
The subject of test [10] is MDA-MB-231 human breast cancer cells. The test is described as above. Format: cell-based. The following applies: MDA-MB-231, 0.0017 μg/ml Taxol alone (control group, 0 μg/ml benzodioxole). As to the method: as §8
Test [11] concerns DU-145 human prostate cancer cells. The experiment in a line: In vitro activity assay of adjuvant treatment of prostate cancer tumor cells using Taxol (MTT assay). To be noted: DU-145, 0.0043 μg/ml Taxol alone (control group). Type of test: cell-based. On the procedure:
as §8

Test [12] deals with Hep G2 human liver cancer cells. The following applies: Hep G2, 0.0017 μg/ml Taxol alone (control group).
Experimental: as §9

≈ marks a conversion by molar mass, not a printed value.

What is called IC50 is the concentration that gives 50% inhibition. Consider `COc1cc(C)c(OC)c2c1OCO2` [4,7-dimethoxy-5-methy-1,3-benzodioxole], for which the IC50 was determined as 1.72 µg/mL (≈ 8.77 µM) in [1]; 0.992 µg/mL (≈ 5.06 µM) in [2]; 0.016 µg/mL (≈ 0.0815 µM) in [3]; 2.46 µg/mL (≈ 12.5 µM) in [4]; 2.21 µg/mL (≈ 11.3 µM) in test [5]; 4.46 µg/mL (≈ 22.7 µM) in test [6]. The IC50 in [7] (Homo sapiens) was 1.16 µg/mL.
Turning to `CC[C@H](C)C(=O)O[C@H]1C[C@@H](C)C=C2C=C[C@H](C)[C@H](CC[C@@H]3C[C@@H](O)CC(=O)O3)[C@H]21` [Lovastatin], the “The ratio of viable cells (%)” value in test [8] is given as 69 ± 1%.
Regarding `CC(=O)O[C@H]1C(=O)[C@@]2(C)[C@H]([C@H](OC(=O)c3ccccc3)[C@]3(O)C[C@H](OC(=O)[C@H](O)[C@@H](NC(=O)c4ccccc4)c4ccccc4)C(C)=C1C3(C)C)[C@]1(OC(C)=O)CO[C@@H]1C[C@@H]2O` [Taxol], the “The ratio of viable cells (%)” value in test [9] is 69 ± 1%; in test [10] it was 86 ± 1%; in [11], 71 ± 1%; in [7] (0.0017 μg/ml Taxol alone (control group)), 55 ± 1%; in test [12], 86 ± 1%.
